Laboratory results taken from the supplement of paper PMC10307832.

What was measured:
Test in all cases: relative viability (nuclei count vs DMSO), 5 days (fraction); higher = more cells survive
GSK-J4 + Bortezomib = compound: CCOC(=O)CCNc1cc(N2CCc3ccccc3CC2)nc(-c2ccccn2)n1 [GSK-J4] + CC(C)C[C@H](NC(=O)[C@H](Cc1ccccc1)NC(=O)c1cnccn1)B(O)O [Bortezomib] (partner 0.002 µM)
Procedure, shortened: (§1)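 Each reported value is a median over duplicate plates. It expresses relative viability: treated-well nuclei count divided by vehicle-well nuclei count. Lung cancer cell lines in 1536-well plates were dosed by pin tool a day after seeding, alone with one drug or with a fixed anchor-drug dose plus five library-drug doses (not always all listed) in √10 steps, and nuclei were counted after 5 days.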

AZ3146 + Phenformin = compound: CN1CCC(CC1)OC2=CC(=C(C=C2)NC3=NC=C4C(=N3)N(C(=O)N4C)C5CCCC5)OC [AZ3146] + N=C(N)NC(=N)NCCc1ccccc1 [Phenformin] (partner 250 µM)
Procedure, shortened: as §1

GSK-J4 + Navitoclax = compound: CCOC(=O)CCNc1cc(N2CCc3ccccc3CC2)nc(-c2ccccn2)n1 [GSK-J4] + CC1(C)CCC(c2ccc(Cl)cc2)=C(CN2CCN(c3ccc(C(=O)NS(=O)(=O)c4ccc(N[C@H](CCN5CCOCC5)CSc5ccccc5)c(S(=O)(=O)C(F)(F)F)c4)cc3)CC2)C1 [Navitoclax] (partner 0.5 µM)
Procedure, shortened: as §1

GSK-J4 + Pemetrexed = compound: CCOC(=O)CCNc1cc(N2CCc3ccccc3CC2)nc(-c2ccccn2)n1 [GSK-J4] + Nc1nc2[nH]cc(CCc3ccc(C(=O)N[C@@H](CCC(=O)O)C(=O)O)cc3)c2c(=O)[nH]1 [Pemetrexed] (partner 0.2 µM)
Procedure, shortened: as §1

Cell Line	relative viability (GSK-J4 + Bortezomib; first compound 0.5 µM)	relative viability (GSK-J4 + Bortezomib; first compound 1.581 µM)	relative viability (GSK-J4 + Bortezomib; first compound 5 µM)	relative viability (GSK-J4 + Bortezomib; first compound 15.81 µM)	relative viability (GSK-J4 + Bortezomib; first compound 50 µM)	relative viability (AZ3146 + Phenformin; first compound 0.08 µM)	relative viability (AZ3146 + Phenformin; first compound 0.253 µM)	relative viability (AZ3146 + Phenformin; first compound 0.8 µM)	relative viability (AZ3146 + Phenformin; first compound 2.53 µM)	relative viability (AZ3146 + Phenformin; first compound 8 µM)	relative viability (GSK-J4 + Navitoclax; first compound 0.5 µM)	relative viability (GSK-J4 + Navitoclax; first compound 1.581 µM)	relative viability (GSK-J4 + Navitoclax; first compound 5 µM)	relative viability (GSK-J4 + Navitoclax; first compound 15.81 µM)	relative viability (GSK-J4 + Navitoclax; first compound 50 µM)	relative viability (GSK-J4 + Pemetrexed; first compound 0.5 µM)	relative viability (GSK-J4 + Pemetrexed; first compound 1.581 µM)	relative viability (GSK-J4 + Pemetrexed; first compound 5 µM)	relative viability (GSK-J4 + Pemetrexed; first compound 15.81 µM)	relative viability (GSK-J4 + Pemetrexed; first compound 50 µM)
NCI-H520	0.553	0.316	0.299	0.509	0.556	0.385	0.497	0.323	0.637	0.375	1.07	0.957	1.21	0.694	1.06	0.632	0.5	0.655	0.57	0.547
NCI-H596	0.999	0.945	0.99	0.976	1	0.672	0.738	0.722	0.735	0.797	1.02	0.955	1.1	0.846	0.977	0.519	0.485	0.473	0.465	0.549
NCI-H647	0.912	0.862	0.652	1.12	0.982	0.394	0.649	0.59	0.465	0.32	1.02	0.737	0.981	1.06	1.09	0.175	0.177	0.168	0.184	0.205
NCI-H838	0.978	0.483		0.769	0.792	0.581	0.554	0.556	0.517	0.229	1.13	1.07		1.08	1.14	0.242	0.219	0.218	0.248	0.199
NCI-H1355	1.23	1.04	1.11	1.16	1.16	0.446	0.444	0.437	0.465	0.404	0.913	0.793	1.18	0.815	0.924	0.988	0.975	0.889	0.858	0.992
NCI-H1437	0.537	0.328	0.435	0.504	0.209	0.264	0.34	0.312	0.295	0.313	1.03	1.03	1.03	1.08	0.319	0.298	0.317	0.3	0.297	0.262
NCI-H1650	0.17	0.164	0.219	0.174	0.232	0.415	0.355	0.449	0.386	0.26	1.07	0.916	1.33	0.995	0.565	0.439	0.303	0.392	0.36	0.331
NCI-H1651	0.893	0.842	0.893	0.901	0.884	0.31	0.316	0.345	0.34	0.313	0.999	0.942	1.03	1.05	0.958	0.587	0.597	0.595	0.518	0.56
